Assay results: paper PMC6053448, “Small molecule activator of Nm23/NDPK as an inhibitor of metastasis” (Scientific Reports, 2018)

Tests used:
[1] = target: T1, recombinant human Nm23-H1 (NDPK-A) (Homo sapiens, UniProt P15531); experiment: NDPK assay, activation; type: biochemical; conditions: number only in supplement
T1 construct: gene NME1; pET-3c, E. coli BL21(DE3), no tag mentioned; ATP-sepharose purification

[2] = target: T1, recombinant human Nm23-H1 (NDPK-A); experiment: NDPK assay, double reciprocal plot; type: biochemical; conditions: 5 µM ATP, without NMac1

T1 sequence (P15531 whole entry): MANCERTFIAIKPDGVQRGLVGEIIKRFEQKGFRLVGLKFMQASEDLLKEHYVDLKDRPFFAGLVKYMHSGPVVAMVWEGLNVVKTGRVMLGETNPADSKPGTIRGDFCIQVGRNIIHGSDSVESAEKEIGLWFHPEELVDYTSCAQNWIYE

| Compound | % activation [1] | Km [2] |
| --- | --- | --- |
| COc1ccc(/C=C/[C@H]2CCC=C[C@@H]2c2ccc(OC)c(OC)c2)cc1OC [NMac3, 3S-(3,4-dimethoxyphenyl)-4R-[(E)-3,4-dimethoxystyryl]cyclohex-1-ene] | The chirality of the molecule did not affect the activation of Nm23-H1 | – |
| O=c1ccn([C@@H]2O[C@H](COP(=O)(O)OP(=O)(O)O)[C@@H](O)[C@H]2O)c(=O)[nH]1 [UDP] | – | NMac1 decreased the Km value of Nm23-H1 for substrate UDP without affecting Vmax |
